Measurements from patent US11672795B2, “Compositions and methods for treating pulmonary vascular disease” (UNIVERSITY OF PITTSBURGH-OF THE COMMONWEALTH SYSTEM OF …, priority 2016, dated 2023).

Assays:
PAAFs [1] = test: Metabolic activation of PAAFs cultivated on stiff matrix; assay type: cell-based
From the text: (§1) A-C) Pharmacological inhibition of GLS1 by either BPTES, C968 or CB839 blunted metabolic activation of PAAFs cultivated on stiff matrix as reflected by decreased glutaminolysis (A), glycolysis (B) and aspartate production (C). D-E) Pharmacological inhibition of GLS1 by either BPTES, C968 or CB839 decreased PAAFs dependent ECM remodelling upon stimulation by pro-inflammatory cytokines (EDN1, IL6 or TGF-b). […] G-H) Fibrilar collagen visualization (G) and quantification (H) by picrosirius red staining confirmed a decreased of ECM remodelling by activated PAAF (TGF-b) in presence of GLS1 inhibitors. I-M) PAAFs were cultivated upon indicated treatments. Cells were removed and pulmonary arterial endothelial cells (PAECs) were cultivated on the matrix synthesized by the PAAF. […] Data are expressed as mean±SEM (*P<0.05, § P<0.01, #P<0.001) of at least 3 independent experiments performed in triplicate. Paired samples were compared by 2-tailed Student's t test, while 1-way ANOVA and post-hoc Tukey's tests were used for group comparisons.

PAAFs [2] = test: PAAF-dependent ECM remodelling on cytokine stimulation (RT-qPCR, picrosirius red); assay type: cell-based; conditions: for TGF-b-induced ECM related genes expression / fibroblast activation marker (a-SMA) expression: PAAFs, RT-qPCR; for fibroblast activation marker (a-SMA) expression: TGF-b; for PAAFs dependent ECM remodelling: stimulation by pro-inflammatory cytokines (EDN1, IL6 or TGF-b)
From the text: as §1
Messenger RNAs were reverse transcribed using the Multiscript RT kit (Life Technologies) to generate cDNA. cDNA was amplified via fluorescently labeled Taqman primer sets using an Applied Biosystems 7900HT Fast Real Time PCR device. To specifically determine the relative expression of the two GLS1 isoforms KGA and GAC, TaqMan gene expression assays Hs01014019_m1 and Hs01022166_m1 were used respectively. Fold-change of RNA species was calculated using the formula (2^−ΔΔCt), normalized to RPLP0 expression.
Picrosirius Red stain was achieved through the use of 5 μm paraffin sections stained with 0.1% Picrosirius Red (Direct Red80, Sigma-Aldrich) and counterstained with Weigert's hematoxylin to reveal fibrillar collagen. The sections were then serially imaged using with an analyzer and polarizer oriented parallel and orthogonal to each other. Microscope conditions (lamp brightness, condenser opening, objective, zoom, exposure time, and gain parameters) were maintained throughout the imaging of all samples. A minimal threshold was set on appropriate control sections for each experiment in which only the light passing through the orthogonally-oriented polarizers representing fibrous structures (i.e., excluding residual light from the black background) was included. The threshold was maintained for all images across all conditions within each experiment. The area of the transferred regions that was covered by the thresholded light was calculated and at least 10 sections/vessel per condition were averaged together (NIH ImageJ software). Targeted LC-MS/MS

GLS1 = test: Targeted LC-MS/MS of intracellular metabolites in PAECs on soft or stiff matrix with GLS inhibitors; assay type: cell-based, human; conditions: stiff matrix, BPTES 10 μM, DON 5 μM, C968 10 μM
Experimental: HEK293T cells (American Type Culture Collection) were cultivated in DMEM containing 10% fetal bovine serum (FBS). Primary human pulmonary arterial endothelial cells (PAECs) were grown in EGM-2 cell culture media (Lonza), and experiments were performed at passages 3 to 6. Primary human pulmonary arterial smooth muscle cells (PASMCs) were cultured in SmGM-2 cell culture media (Lonza), and experiments were performed at passages 3 to 9. Inhibitors of GLS1 (2, 3): BPTES (Bis-2-(5-phenylacetamido-1,3,4-thiadiazol-2-yl)ethyl sulphide), DON (6-Diazo-5-oxo-L-norleucine), and C968 (Glutaminase Inhibitor, Compound 968, 5-(3-Bromo-4-(dimethylamino)phenyl)-2,2-dimethyl-2,3,5,6-tetrahydrobenzo[a]phenanthridin-4(1H)-one) were purchased from Sigma-Aldrich and used at concentration of 10 μM, 5 μM and 10 μM respectively. Glutamate was purchased from Sigma Aldrich and used at concentration of 2 mM. Aspartate was purchased from Sigma Aldrich and used at concentration of 10 mM.
Metabolite extraction was performed essentially as described with minor modifications (35). Briefly, metabolites were extracted from cultured cells and CD31+ cells on dry ice using 80% aqueous methanol pre-cooled at −80° C. Metabolites were extracted from plasma pre-cleared by centrifugation at 20,000×g for 10 min at 4° C. Supernatants were extracted with four volumes of 100% methanol pre-cooled at −80° C. for four hours at −80° C. An internal standard, [^13C4]-2-oxoglutarate (Cambridge Isotope Laboratories) was added during metabolite extraction. Insoluble material from both cell and plasma extractions was removed by centrifugation at 20,000×g for 15 min at 4° C. The supernatant was analysed by targeted LC-MS/MS as previously described (36). Metabolites were separated using a ZIC-HILIC stationary phase (150 mm×2.1 mm×[…]; Merck). The MS parameters were optimized using a glutamine standard solution. Monitored mass transitions were 87>87 (pyruvate), 115>73+99 (succinate), 132>88 (aspartate), 145>101 (20G), […] (glutamine), 146>128 (glutamate), and 149>105 ([^13C4]-20G). Mass transitions and retention time windows were confirmed by the analysis of neat and matrix-spiked standards. Peak areas were quantified by Xcalibur Software (Thermo) and manually reviewed.
To determine whether GLS1 is critical for stiffness-induced and YAP/TAZ-dependent glutaminolysis, PAECs were cultivated in soft or stiff matrix, and exposed to known inhibitors of two isoforms of GLS1 (KGA and GAC), BPTES (Bis-2-(5-phenylacetamido-1,3,4-thiadiazol-2-yl)ethyl sulphide), DON (6-Diazo-5-oxo-L-norleucine), or CB-968 (glutaminase inhibitor, compound 968, C-968) (FIG. 3A-C) or siRNA (si-GLS; FIG. 3D-G). As quantified by LC-MS/MS, inhibition of GLS in PAECs blunted the stiffness-induced processes of glutamine consumption, glutamate production, and aspartate production (FIGS. 3A and E). […] Similar alterations of metabolic activity were observed when inhibiting GLS1 in PASMCs (data not shown).

Row | Structure (SMILES) | aspartate production (PAAFs [1]) | glutaminolysis (PAAFs [1]) | glycolysis (PAAFs [1]) | metabolic activation of PAAFs (PAAFs [1]) | TGF-b-induced ECM related genes expression (PAAFs [2]) | fibroblast activation marker (a-SMA) expression (PAAFs [2]) | PAAFs dependent ECM remodelling (PAAFs [2]) | alterations of metabolite expression in stiff matrix (stiffness-induced glutamine consumption, glutamate production, aspartate production) (GLS1) | lactate/pyruvate ratio (glycolysis) (GLS1)
1 | O=C(Cc1cccc(OC(F)(F)F)c1)Nc1ccc(CCCCc2nnc(NC(=O)Cc3ccccn3)s2)nn1 [CB839] | decreased | decreased | decreased | blunted | decreased | decreased | decreased | – | –
2 | CN(C)c1ccc(C2Nc3ccc4ccccc4c3C3=C2C(=O)CC(C)(C)C3)cc1Br (stereo not shown) [C968, 5-(3-Bromo-4-(dimethylamino)phenyl)-2,2-dimethyl-2,3,5,6-tetrahydrobenzo[a]phenanthridin-4(1H)-one] | decreased | decreased | decreased | blunted | decreased | decreased | decreased | blunted | decreased
